Source: patent US9598441B2, “Therapeutic compounds and methods” (Wayne State University, priority 2011, dated 2017)

Legend:
[1] = target: T1, CARP-1 binding with APC-2 (Homo sapiens, UniProt Q8IX12); experiment: Fluorescence polarization assay (FPA) for inhibitors of CARP-1-APC-2 binding; settings: fluorescein-tagged A-epitope peptide and Gst-APC-2 (685-754)
T1 construct: made in house; host or cells: E. coli BL-21 (DE3)
T1 sequence (Q8IX12 951-980 limits assumed): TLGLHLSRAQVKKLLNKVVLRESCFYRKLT
Procedure: Although, several formats for FP are indicated in the published literature (Inglese, J., Johnson, R. L., Simeonov, A., Xia, M., Zheng, W., Austin, C. P., Auld, D. S. (2007) Nat. Chem. Biol. 3(8), 466-79), the assays using 96-well or higher density plates are often and routinely employed. Optimization of FP for HTS involves several steps including the determination of Kd values, optimization of the buffer conditions, incubation and measurement times, and determination of the DMSO tolerance of the assay. Our goal was to minimize variation and to aim for adequate signal:background without adversely effecting the sensitivity of the assay. The FP polarization values in milli-polarization (mp) were measured to determine changes in the mp (Amp=mp of bound peptide mp of free peptide), the Kd and Ki constants of the binding. A 30-mer CARP-1 peptide that contained APC-2-binding epitope (A-epitope peptide) was commercially synthesized (US Biologicals, MA), labeled with fluorescein at the N-terminus, and purified to >98% purity. Increasing concentrations of A-epitope peptide were incubated with the indicated quantities of the affinity-purified Gst-APC-2 (685-754) protein in assay buffer containing 0.01% triton-X100. Affinity-purified Gst-NEMO (221-317) was included as a negative control. The Δmp was measured by excitation at 485 nm and emission at 538 nm.
The kinetics of CARP-1 binding with APC-2 was determined, and whether this binding could be exploited to identify SMIs of CARP-1-APC-2 interaction was investigated. For this purpose, a FPA utilizing the affinity-purified Gst-APC-2 (685-754) protein and the fluorescein-tagged A-epitope peptide was developed as detailed in methods. […] The signal to background ratio of 6 underscored robustness of this assay. Since, the quality (precision) and suitability of the FPA for HTS is usually defined by the Z′ factor (25, 40), we utilized the positive and negative control mean signals (μc+ and μc−, respectively) and their standard deviations (σc+ and σc−) to calculate the Z′ factor using the equation Z′=1−[3(σc++σc−)/(μc+−μc−)]. […]

[2] = target: T2, Gst-APC-2 (685-754) (Homo sapiens, UniProt Q9UJX6); experiment: In vitro binding of SMIs, immobilized Gst-APC-2 pre-incubated with CFM; settings: WB with anti HA-tag
T2 construct: immobilizing the Gst-APC-2 (685-754) peptide with Gst-beads; made in house; host or cells: E. coli BL-21 (DE3)
T2 sequence (Q9UJX6 685-754): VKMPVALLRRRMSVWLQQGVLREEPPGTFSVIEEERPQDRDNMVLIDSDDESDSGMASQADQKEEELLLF
Procedure: The CFM-4 and 5 were separately dissolved in DMSO to obtain a stock of 20-50 mM. For in vitro binding experiments we utilized affinity-purified Gst-APC-2 (685-754) and His-TAT-HA-tagged A-epitope (WT) peptide. Ten nanogram of the His-TAT-HA-tagged A-epitope (WT) peptide was first allowed to bind with Ni-NTA beads (ProBond, InVitrogen), and then the reaction was incubated with DMSO (control), 100 μM CFM-4, or 100 μM CFM-5 for 30 min at RT. The reactions were then subjected to three washes with the binding buffer, followed by incubation with 10 ng of affinity-purified Gst-APC-2 (685-754) peptide for 30 min at RT. The reactions were washed again for three times with PBS, eluted and analyzed on a SDS-PAGE followed by western blotting (WB) with anti-Gst antibodies. A similar strategy was performed by immobilizing the Gst-APC-2 (685-754) peptide with Gst-beads. The beads were washed, incubated with DMSO or the CFMs, and the reactions washed again. The reactions were then allowed to incubate with affinity purified A-epitope peptide, and the complexes analyzed by SDS-PAGE followed by WB with anti HA-tag antibodies.

IC50 [1] [µM]	binding of immobilized Gst-APC-2 (685-754) with A-epitope peptide after pre-incubation with compound [2]	Compound
4.1	–	Cc1cc(Br)cc2c1NC(=O)/C2=C1\SC(=S)NC1=O [CFM-1, (Z)-5-(5-bromo-7-methyl-2-oxoindolin-3-ylidene)-2-thioxothiazolidin-4-one]
0.75	failed to abolish its binding	O=C1N(Cc2ccccc2Cl)c2ccccc2C12NN=C(c1ccccc1)S2 (stereo not drawn) [CFM-4, 1-(2-chlorobenzyl)-5′-phenyl-3′H-spiro[indoline-3,2′-[1,3,4]thiadiazol]-2-one]
